Results published in US10526294B2, “Pyrrolobenzodiazepines and conjugates thereof” (priority 2016, dated 2020).

Tests used:
JIMT1 cells = assay: Cell viability assay (CellTiter-Glo), JIMT1; format: cell-based; conditions: Homo sapiens, JIMT-1, HER2 medium expression level cells, 72 h
Procedure: (§1) Cell Viability Assay for Antibody-Polymer-Drug Conjugates.
(§2) PBD compounds and conjugates thereof were evaluated for their antiproliferation properties in tumor cell lines in vitro using CellTiter-Glo® (Promega Corp). Cells were plated in black walled 96-well plate and allowed to adhere overnight at 37° C. in a humidified atmosphere of 5% CO2. BT474, SKBR3, NCI-N87 cells (HER2 expressing cells), JIMT1 cells (HER2 medium expression level cells) and MCF7 cells (HER2 low expressing levels cells) and were plated at a density of 5,000 cells per well. The next day the medium was replaced with 50 μL fresh medium and 50 μL of 2× stocks of PBD compounds or antibody-PBD conjugate were added to appropriate wells, mixed and incubated for 72 h. CellTiter-Glo® reagent was added to the wells at room temperature and the luminescent signal was measured after 10 min using a SpectraMax M5 plate reader (Molecular Devices). Dose response curves were generated using SoftMax Pro software. IC50 values were determined from four-parameter curve fitting.

NCI-N87 cells = assay: Cell viability assay (CellTiter-Glo), NCI-N87; format: cell-based; conditions: Homo sapiens, HER2 expressing cells, 72 h
Procedure: as §1, §2

BT474 cells = assay: Cell viability assay (CellTiter-Glo), BT474; format: cell-based; conditions: Homo sapiens, BT-474, HER2 expressing cells, 72 h
Procedure: as §1, §2

SKBR3 cells = assay: Cell viability assay (CellTiter-Glo), SKBR3; format: cell-based; conditions: Homo sapiens, SK-BR-3, HER2 expressing cells, 72 h
Procedure: as §1, §2

MCF7 cells = assay: Cell viability assay (CellTiter-Glo), MCF7; format: cell-based; conditions: Homo sapiens, HER2 low expressing levels cells, 72 h
Procedure: as §1, §2

[1] = Phase I clinical evaluation; cited from earlier work

`COc1cc2c(cc1OCCCC(=O)Nc1cn(C)c(C(=O)Nc3ccc(-c4cc(C(=O)O)n(C)c4)cc3)n1)N=C[C@@H]1CCCN1C2=O` [Compound 44, (S,Z)-4-(4-(4-(4-(7-methoxy-5-oxo-2,3,5,11a-tetrahydro-1H-benzo[e]pyrrolo[1,2-a][1,4]diazepin-8-yloxy)butanamido)-1-methyl-1H-imidazole-2-carboxamido)phenyl)-1-methyl-1H-pyrrole-2-carboxylic acid] gave an IC50 (JIMT1 cells; PBD compounds (Table I)) of 109 nM, an IC50 (NCI-N87 cells; PBD compounds (Table I)) of 105 nM and an IC50 (BT474 cells; PBD compounds (Table I)) of 1000 nM. For the same compound, the IC50 (SKBR3 cells; PBD compounds (Table I)) was 53 nM and the IC50 (MCF7 cells; PBD compounds (Table I)) was 560 nM.
Compound `C=C1CC2C=Nc3cc(OCCCC(=O)Nc4cn(C)c(C(=O)Nc5ccc(-c6cc(C(=O)n7ccc8cc(N)ccc87)n(C)c6)cc5)n4)c(OC)cc3C(=O)N2C1` (stereo not drawn) [Compound 105, (Z)—N-(4-(5-(5-amino-1H-indole-1-carbonyl)-1-methyl-1H-pyrrol-3-yl)phenyl)-4-(4-(7-methoxy-2-methylene-5-oxo-2,3,5,11a-tetrahydro-1H-benzo[e]pyrrolo[1,2-a][1,4]diazepin-8-yloxy)butanamido)-1-methyl-1H-imidazole-2-carboxamide] has an IC50 (JIMT1 cells; conjugates (Table II)) of 0.04 nM, an IC50 (NCI-N87 cells; conjugates (Table II)) of 0.03 nM and an IC50 (BT474 cells; conjugates (Table II)) of 0.09 nM. For the same compound, the IC50 (SKBR3 cells; conjugates (Table II)) was 0.007 nM and the IC50 (MCF7 cells; conjugates (Table II)) was 0.03 nM.
For `C=C1C[C@H]2C=Nc3cc(OCCCC(=O)Nc4cn(C)c(C(=O)Nc5ccc(-c6nc7cc(OC)ccc7[nH]6)cc5)n4)c(OC)cc3C(=O)N2C1` [Compound 106, (S,Z)—N-(4-(5-methoxy-1H-benzo[d]imidazol-2-yl)phenyl)-4-(4-(7-methoxy-2-methylene-5-oxo-2,3,5,11a-tetrahydro-1H-benzo[e]pyrrolo[1,2-a][1,4]diazepin-8-yloxy)butanamido)-1-methyl-1H-imidazole-2-carboxamide], the IC50 (JIMT1 cells; conjugates (Table II)) was 0.17 nM, the IC50 (NCI-N87 cells; conjugates (Table II)) was 0.21 nM and the IC50 (BT474 cells; conjugates (Table II)) was 0.73 nM. The IC50 (SKBR3 cells; conjugates (Table II)) was 0.13 nM and the IC50 (MCF7 cells; conjugates (Table II)) was 0.84 nM.
With `C=C1CC2C=Nc3cc(OCCCC(=O)Nc4cn(C)c(C(=O)Nc5ccc(-c6cc(C(=O)n7ccc8cc(OC)ccc87)n(C)c6)cc5)n4)c(OC)cc3C(=O)N2C1` (stereo not drawn) [Compound 107, (Z)—N-(4-(5-(5-methoxy-1H-indole-1-carbonyl)-1-methyl-1H-pyrrol-3-yl)phenyl)-4-(4-(7-methoxy-2-methylene-5-oxo-2,3,5,11a-tetrahydro-1H-benzo[e]pyrrolo[1,2-a][1,4]diazepin-8-yloxy)butanamido)-1-methyl-1H-imidazole-2-carboxamide] the IC50 (JIMT1 cells; conjugates (Table II)) was 0.03 nM, the IC50 (NCI-N87 cells; conjugates (Table II)) was 0.03 nM and the IC50 (BT474 cells; conjugates (Table II)) was 0.16 nM. The IC50 (SKBR3 cells; conjugates (Table II)) was 0.02 nM and the IC50 (MCF7 cells; conjugates (Table II)) was 0.07 nM.
In the case of `C=C1C[C@H]2C=Nc3cc(OCCCOc4cc5c(cc4OC)C(=O)N4CC(=C)C[C@H]4C=N5)c(OC)cc3C(=O)N2C1` [SJG-136], the maximum tolerated dose [1] is listed as 45 μg/m^2.
